In patent US20240117005A1, “NOVEL BICYCLIC PEPTIDES” (THE COUNCIL OF THE QUEENSLAND INSTITUTE OF MEDICAL RESEARCH, priority 2021, published 2024):
Entries after “also recorded” stand apart in the source; their conditions may differ. No end group written: not given here. *: point of attachment. Myristyl = CCCCCCCCCCCCCC*

System: CSV, ABCB5, EGFR, FOXQ1, E-Cadherin in MDA-MB-231 cells
Test: High resolution digital pathology of mesenchymal/epithelial markers, MDA-MB-231
Type: cell-based, human
Method: To examine the signature of CD8, CSV, EGFR, ABCB5, FOXQ1, commercial PD-L1-28-8, nuclear PD-L1, cytoplasmic PDL1 in MDA-MB-231 TNBC cells/TNBC brain cancer clone cells (untreated or treated with bicyclic inhibitors targeting nuclear PD-L1-PTM1). MDA-MB-231/MDA-MB-231-Br cells were permeabilised by incubating with 0.5% Triton X-100 for 15 min, blocked with 1% BSA in PBS and were probed with either CSV (Mouse host), CD8 (mouse host), EGFR (Rabbit host), ABCB5 (Goat Host), ALDH1A (Rabbit Host), NODAL (Goat Host), nuclear PDL1 (rabbit host), cytoplasmic PD-L1 (rabbit host) visualized with a donkey anti-rabbit AF 488, anti-mouse AF 568, donkey anti-goat 647. Cover slips were mounted on glass microscope slides with ProLong Glass Antifade reagent (Life Technologies). Protein targets were localised by digital pathology laser scanning microscopy. Single 0.5 μm sections were obtained using a ASI Digital pathology microscope using 100× oil immersion lens running ASI software. The final image was obtained by averaging four sequential images of the same section. Digital images were analyzed using automated ASI software (Applied Spectral Imaging, Carlsbad, CA) to determine the distribution and intensities automatically with automatic thresholding and background correction of the average nuclear fluorescence intensity (NFI), allowing for the specific targeting of expression of proteins of interest. Digital images were also analysed using ImageJ software (ImageJ, NIH, Bethesda, MD, USA) to determine the total cell fluorescence or cell surface only fluorescence for non-permeabilised cells. Digital images were analysed using ImageJ software (ImageJ, NIH, Bethesda, MD, USA) to determine either the Total Nuclear Fluorescent Intensity (TNFI), the Total Cytoplasmic Fluorescent Intensity (TCFI). ImageJ software with automatic thresholding and manual selection of regions of interest (ROIs) specific for cell nuclei was used to calculate the Pearson's co-efficient correlation (PCC) for each pair of antibodies. PCC values range from: −1=inverse of co-localisation, 0=no co-localisation, +1=perfect co-localisation. The Mann-Whitney nonparametric test (GraphPad Prism, GraphPad Software, San Diego, CA) was used to determine significant differences between datasets.
All breast cancer cell lines used were sourced from ATCC. MDA-MB-231 or MDB-MB-231-Br cell lines were maintained and cultured in DMEM (Invitrogen) supplemented with 10% FBS, 2 mM L-glutamine, and 1% PSN. […]
MDA-MB-231 were permeabilized and treated with either vehicle control or, DL-2 (current stock), or linear PDL1 (PDL1-L1). […] Significant differences are calculated as one-way ANOVA Kruskal-Wallis test comparison to vehicle control. […]

| Molecule | expression of the epithelial marker E-Cadherin (MDA-MB-231) | expression of mesenchymal marker CSV (CFI) (MDA-MB-231, vs vehicle control) | mesenchymal stem-like resistant protein markers (CSV, ABCB5, EGFR, FOXQ1) (MDA-MB-231, vs vehicle control) | expression of mesenchymal marker CSV (CFI) (MDA-MB-231, vs vehicle control, listed as linear PDL1 peptide) |
| --- | --- | --- | --- | --- |
| CCCCCCCCCCCCCC(=O)NC(C)C(=O)NC1CSCc2cc3cc(c2)CSC[C@H](NC(=O)[C@H](Cc2ccccc2)NC(=O)[C@H](C(C)CC)NC(=O)[C@H](Cc2ccccc2)NC(=O)[C@H]([C@@H](C)O)NC(=O)C(CC(C)C)NC1=O)C(=O)N[C@@H](CCCNC(C)=N)C(=O)N[C@@H](CC(C)C)C(=O)N[C@@H](CCCNC(=N)N)C(=O)N[C@@H](CCCCN)C(=O)NCC(=O)N[C@@H](CCCNC(=N)N)C(=O)NC(C(=O)N[C@@H](CCSC)C(=O)NC(CCSC)C(=O)N[C@@H](CC(=O)O)C(=O)NC(C(=O)N[C@@H](CCCCN)C(=O)NC(CCCCN)C(=O)O)C(C)C)CSC3 (mixture of isomers) [DL-2] | able to induce expression | inhibit | significantly inhibit |  |
| LTFIFRLRKGRMMDVKK (Myristyl-LTFIFRLRKGRMMDVKK) [PDL1-L1, Myristyl- linear peptide, prototype] |  |  |  | reduce expression of CSV with far less significance; also recorded: able to reduce expression of CSV |
